Here are results for three molecules from ChEMBL document CHEMBL5728247, “Kinase inhibitors for the treatment of disease” (2021).

Usually IC50 stands for the concentration at which inhibition is half-maximal.

The target of this experiment is Tyrosine-protein kinase BTK (Homo sapiens, UniProt Q06187). Kind of experiment: Kinase Assay: 1. Optimization of kinase concentration required to determine ATP Km,app. The assay was first performed at a high concentration of ATP (1 mM) against a dilution series of kinase in order to determine the amount of kinase required to elicit an approximately 80% change between the minimum and maximum TR-FRET emission ratios (the EC80 value).2. Determination of ATP Km,app. Using the concentration of enzyme determined in step 1, the assay was then performed against a dilution series of ATP in order to determine the amount of ATP required to elicit a 50% change between the minimum and maximum TR-FRET emission ratios (the EC50 value). This concentration of ATP was referred to as the “apparent” Km value for ATP, or the ATP Km,app.3. Optimization of kinase concentration required for assay at ATP Km,app. Using the ATP Km,app concentration of ATP determined in step 2, the kinase titration was repeated in order to determine the concentration of kinase required to elicit an approximately 80% change between the minimum and maximum TR-FRET emission ratios at the ATP Km,app concentration of ATP (the EC80 value). This was the concentration of kinase that will be used in an assay to determine an IC50 value for a compound of the invention. (In general: TR-FRET usually uses a lanthanide donor and a delayed reading to cut background.)
Tyrosine-protein kinase BTK, sequence (Q06187 whole entry): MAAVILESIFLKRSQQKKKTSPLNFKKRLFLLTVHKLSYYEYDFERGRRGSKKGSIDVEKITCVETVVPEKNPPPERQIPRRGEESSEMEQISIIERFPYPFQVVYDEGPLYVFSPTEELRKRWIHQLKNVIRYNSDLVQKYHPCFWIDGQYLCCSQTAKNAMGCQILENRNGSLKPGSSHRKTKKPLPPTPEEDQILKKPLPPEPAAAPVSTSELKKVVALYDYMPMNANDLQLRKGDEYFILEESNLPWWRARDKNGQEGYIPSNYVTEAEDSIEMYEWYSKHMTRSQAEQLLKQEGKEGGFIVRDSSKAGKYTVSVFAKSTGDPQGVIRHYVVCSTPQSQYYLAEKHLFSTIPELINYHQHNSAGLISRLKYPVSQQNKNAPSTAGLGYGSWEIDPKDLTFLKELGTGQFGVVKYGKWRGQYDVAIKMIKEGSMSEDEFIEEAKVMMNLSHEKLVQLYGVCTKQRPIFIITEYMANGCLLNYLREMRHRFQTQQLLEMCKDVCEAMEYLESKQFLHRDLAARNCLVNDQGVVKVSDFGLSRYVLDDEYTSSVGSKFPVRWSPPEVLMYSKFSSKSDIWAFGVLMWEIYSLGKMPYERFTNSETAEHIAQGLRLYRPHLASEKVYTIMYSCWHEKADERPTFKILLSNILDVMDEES
As to `C=CC(=O)Nc1cccc(N(C(=O)OCc2ccccc2)c2ccnc(Nc3cnn(CCN4CCOCC4)c3)n2)c1`, the IC50 amounted to 5.74 nM.

In the case of `C=CC(=O)Nc1cccc(N(C(=O)OCc2ccccc2)c2ccnc(Nc3cnn(C)c3)n2)c1`, the IC50 was 5.13 nM. Consider `C=CC(=O)Nc1cccc(N(C(=O)OCc2ccccc2)c2ccnc(Nc3cnn(C4CCOCC4)c3)n2)c1`, for which the IC50 came out at 3.12 nM.
